The values that follow come from PubChem BioAssay AID384 (SGCOxCompounds, 2006).

For the assay, the target named is Casein kinase I isoform gamma-2 (Homo sapiens) (UniProt P78368). As to the kind of experiment: ligand binding to human CK1 gamma-2 kinase – biophysical, DSF, SYPRO orange, recombinant protein (AID 384). The conditions noted are these: recombinant CSNK1G2, DSF thermal shift, at 10 µM, protein 2 µM, buffer 10 mM HEPES, stronger effect = higher value.
Chain of Casein kinase I isoform gamma-2 (Homo sapiens) (P78368 whole entry, looked up, canonical isoform): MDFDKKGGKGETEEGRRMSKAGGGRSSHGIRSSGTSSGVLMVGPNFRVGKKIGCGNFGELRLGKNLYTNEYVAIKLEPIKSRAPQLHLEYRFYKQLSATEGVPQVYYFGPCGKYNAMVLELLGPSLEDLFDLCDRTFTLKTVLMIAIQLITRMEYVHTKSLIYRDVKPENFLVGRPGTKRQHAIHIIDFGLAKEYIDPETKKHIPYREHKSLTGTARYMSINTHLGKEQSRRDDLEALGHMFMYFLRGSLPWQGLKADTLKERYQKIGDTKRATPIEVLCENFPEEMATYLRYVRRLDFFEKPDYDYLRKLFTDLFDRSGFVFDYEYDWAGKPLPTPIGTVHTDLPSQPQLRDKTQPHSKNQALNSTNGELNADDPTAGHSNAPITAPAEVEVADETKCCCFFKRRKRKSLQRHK

As for `COc1ccc(Nc2nc(N)c(C(=O)c3ccc(OC)cc3)s2)cc1`, the Tm shift (pH 7.5, NaCl 150 mM) was 4.3 Celsius. Regarding `O=c1c(O)c(-c2ccc(O)c(O)c2)oc2cc(O)cc(O)c12`, the Tm shift (pH 7.5, NaCl 150 mM) was 3.1 Celsius. For `NC1=N/C(=C2\CCNC(=O)c3[nH]ccc32)C(=O)N1`, the Tm shift (NaCl 100 mM) was 3.67 Celsius. Regarding `CC(C)C(CO)Nc1nc(Nc2cccc(Cl)c2)c2ncn(C(C)C)c2n1` (configuration not stated), the Tm shift (NaCl 100 mM) is 4.92 Celsius. In the case of `O=Nc1c(-c2c(O)[nH]c3ccc(S(O)(O)O)cc23)[nH]c2ccccc12`, the Tm shift (pH 7.5, NaCl 150 mM) is 3.1 Celsius.

In the case of `O=c1[nH]c(O)c2c1c1c3ccccc3nc1n1cncc21`, the Tm shift (pH 7.5, NaCl 150 mM) was 3.6 Celsius. As to `O=c1cc(-c2ccc(O)c(O)c2)oc2cc(O)cc(O)c12`, the Tm shift (NaCl 100 mM) was 4.55 Celsius. Take `NC1=N/C(=C2/CCNC(=O)c3[nH]c(Br)cc32)C(=O)N1`: the Tm shift (NaCl 100 mM) is 8.12 Celsius and the Tm shift (pH 7.5, NaCl 150 mM) was 4.4 Celsius. As for `CCN(CC)CCNC(=O)c1c(C)[nH]c(/C=C2\C(=O)Nc3ccc(Cl)cc32)c1C`, the Tm shift (NaCl 100 mM) is 4.06 Celsius. Turning to `O=Nc1c(-c2c(O)[nH]c3ccc(I)cc23)[nH]c2ccccc12`, the Tm shift (pH 7.5, NaCl 150 mM) was 3.6 Celsius. On the same count and under the same terms, the value for `Cc1nc(N)sc1-c1ccnc(Nc2cccc(-n3oo3)c2)n1` was 4 Celsius; that for `Cc1cc(Nc2nc(-c3ccccc3)nc3ccccc23)n[nH]1` was 3.3 Celsius. For `CCn1cnc2c(Nc3cccc(Cl)c3)nc(N[C@@H]3CCCC[C@@H]3N)nc21`, for the setting “NaCl 100 mM”, the Tm shift is 3.79 Celsius. Take `COc1cc(O)c2c(c1)oc(=O)c1c3cc(O)c(O)cc3oc21`: the Tm shift (NaCl 100 mM) was 5.16 Celsius. On to `O=C1C(=O)C(c2cc(O)c(O)c(O)c2)Oc2cc(O)cc(O)c21` (configuration not stated), for which, under “NaCl 100 mM”, the Tm shift was 3.74 Celsius. Turning to `COc1ccc(Nc2nc(N)c(C(=O)c3ccc(Cl)cc3)s2)cc1`, the Tm shift (pH 7.5, NaCl 150 mM) was 3.1 Celsius. `COc1cc(/C=C/C(=O)CC(=O)/C=C/c2ccc(O)c(OC)c2)ccc1O`: the Tm shift (NaCl 100 mM) was 4.92 Celsius. Still for that read-out and setting: the same measure for `Clc1ccc(Nc2ncc(-c3cn[nH]c3)n3ccnc23)cc1`: 3.76 Celsius; for `O=c1c(O)c(-c2ccc(O)c(O)c2)oc2cc(O)ccc12`: 3.19 Celsius.

Take `CC(C)n1cnc2c(Nc3cccc(Cl)c3)nc(NCCO)nc21`: the Tm shift is, setting by setting: (NaCl 100 mM) 5.58 Celsius; (pH 7.5, NaCl 150 mM) 4.7 Celsius.

Regarding `CSc1nc(-c2ccnc(NC(C)c3ccccc3)c2)c(-c2ccc(F)cc2)[nH]1` (configuration not stated), under “pH 7.5, NaCl 150 mM”, the Tm shift was 3.4 Celsius. Take `Nc1ncnc2c1c(I)cn2[C@@H]1O[C@H](CO)C(O)C1O` (some centres not stated): the Tm shift by setting is: (NaCl 100 mM) 4.69 Celsius; (pH 7.5, NaCl 150 mM) 3.3 Celsius.

On to `NC(=O)c1ccc(-c2nc(-c3ccc4c(c3)OCCO4)c(-c3ccccn3)[nH]2)cc1`, for which, where the note is “pH 7.5, NaCl 150 mM”, the Tm shift was 4.3 Celsius. For `Nc1nc(Nc2cccc(Cl)c2)sc1C(=O)c1ccc(F)cc1`, under “pH 7.5, NaCl 150 mM”, the Tm shift was 3.4 Celsius.
